The values that follow come from patent US20250195530A1, “POLQ INHIBITORS” (ASTRAZENECA AB, priority 2022, published 2025).

One experiment has as its system DLD-1 BRCA2−/− cells. In words: Homologous recombination synthetic lethal inhibition of proliferation, DLD-1 BRCA2-/- (Cell Titre Glo 3D). The class given is cell-based. The settings on record: Homo sapiens, taken as DLD-1 BRCA2-/-, read-out: POLQ PD Prolif Lumin (converted). An outline of the steps:
(§1)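 Wild-type DLD-1 serves as the control for non-specific toxicity, and BRCA2-null DLD-1 as the homologous-recombination-deficient line. Both grew with compound from 10 μM down to 0.51 nM, re-dosed after 6 days. Luminescent ATP content (CellTiter-Glo 3D) was read after 7 or 12 days, respectively, to give IC50 values.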

The next experiment deals with DLD-1 cells. In words: Inhibition of proliferation, DLD-1 BRCA2 wt control (Cell Titre Glo 3D). The conditions noted are these: Homo sapiens, read-out: POLQ PD Prolif Lumin (converted). The class given is cell-based. The procedure, abridged: as §1
Where [1] appears, read: DLD-1, first proliferation column (c5).
Setting [2] is: DLD-1, second proliferation column (c6), taken as DLD-1 BRCA2 wt.
[3] abbreviates: DLD-1, proliferation, luminescence.
Where [4] appears, read: DLD-1, proliferation, luminescence, second Prolif column (c6), taken as DLD-1 BRCA2 wt control.

Read-outs that look alike come from different tables or passages of the source. A value given as a limit tells only on which side of the number the result lay.

As for `Cc1cnc(Cn2c(-c3ccc(OC4CC5(C4)CN(C)C5)cc3Cl)nc3c(OC4(C)CC4)ncnc32)s1` [Example T359, 2-((8-(2-chloro-4-((2-methyl-2-azaspiro[3.3]heptan-6-yl)oxy)phenyl)-6-(1-methylcyclopropoxy)-9H-purin-9-yl)methyl)-5-methylthiazole], the IC50 is 0.501 µM in the experiment with DLD-1 BRCA2−/− cells (setting [1]) and over 10 µM in the experiment with DLD-1 cells (setting [2]).
Taken in the same sequence, the figures for `Cc1ccnc(Cn2c(-c3cccc(OCCN4CC(O)C4)c3Cl)nc3c(OC4(C)CC4)ncnc32)c1` [Example T360, 1-(2-(2-chloro-3-(6-(1-methylcyclopropoxy)-9-((4-methylpyridin-2-yl)methyl)-9H-purin-8-yl)phenoxy)ethyl)azetidin-3-ol] were 0.794 µM and over 10 µM.
Taken in the same sequence, the figures for `Cc1ccnc(Cn2c(-c3ccc(C(=O)NCC(C)(C)O)cc3Cl)nc3c(OC4(C)CC4)ncnc32)c1` [Example T363, 3-chloro-N-(2-hydroxy-2-methylpropyl)-4-(6-(1-methylcyclopropoxy)-9-((4-methylpyridin-2-yl)methyl)-9H-purin-8-yl)benzamide] were 0.794 µM and over 10 µM.
Taken in the same sequence, the figures for `Cc1ccnc(Cn2c(-c3ccc(CC(=O)N(C)CCO)cc3Cl)nc3c(OC4(C)CC4)ncnc32)c1` [Example T369, 2-(3-chloro-4-(6-(1-methylcyclopropoxy)-9-((4-methylpyridin-2-yl)methyl)-9H-purin-8-yl)phenyl)-N-(2-hydroxyethyl)-N-methylacetamide] were 1 µM and over 10 µM.
With `Cc1ccnc(Cn2c(-c3ccc(CC(=O)NC[C@H](C)O)cc3Cl)nc3c(OC4(C)CC4)ncnc32)c1` [Example T371, (S)-2-(3-chloro-4-(6-(1-methylcyclopropoxy)-9-((4-methylpyridin-2-yl)methyl)-9H-purin-8-yl)phenyl)-N-(2-hydroxypropyl)acetamide], the IC50 was 1 µM in the experiment with DLD-1 BRCA2−/− cells (setting [1]) and over 10 µM in the experiment with DLD-1 cells (setting [2]).
Taken in the same sequence, the figures for `CN(C)CCCOc1ccc(-c2nc3c(OC4(C)CC4)nccc3n2Cc2cc(Cl)ccn2)c(Cl)c1` [Example T377, 3-(3-chloro-4-(1-((4-chloropyridin-2-yl)methyl)-4-(1-methylcyclopropoxy)-1H-imidazo[4,5-c]pyridin-2-yl)phenoxy)-N,N-dimethylpropan-1-amine] were 0.158 µM and over 7.94 µM.
Taken in the same sequence, the figures for `CC1(Oc2ncnc3c2nc(-c2ccc(OCCN4CCNCC4)cc2Cl)n3Cc2ccnc(Cl)c2)CC1` [Example T378, 8-(2-chloro-4-(2-(piperazin-1-yl)ethoxy)phenyl)-9-((2-chloropyridin-4-yl)methyl)-6-(1-methylcyclopropoxy)-9H-purine] were 1.58 µM and over 10 µM.
Taken in the same sequence, the figures for `CC1(Oc2ncnc3c2nc(-c2ccc(OCCN4CCNCC4)cc2Cl)n3Cc2cncc(Cl)c2)CC1` [Example T379, 8-(2-chloro-4-(2-(piperazin-1-yl)ethoxy)phenyl)-9-((5-chloropyridin-3-yl)methyl)-6-(1-methylcyclopropoxy)-9H-purine] were 0.251 µM and over 10 µM.
`CC1(Oc2ncnc3c2nc(-c2ccc(OCCN4CCN(S(=O)(=O)O)CC4)cc2Cl)n3Cc2cc(Cl)ccn2)CC1` [Example T380, 4-(2-(3-chloro-4-(9-((4-chloropyridin-2-yl)methyl)-6-(1-methylcyclopropoxy)-9H-purin-8-yl)phenoxy)ethyl)piperazine-1-sulfonic acid]: the figures for the IC50 in the experiment with DLD-1 BRCA2−/− cells (setting [1]) and with DLD-1 cells (setting [2]) were 7.94 µM and over 10 µM, respectively.
On to `Cc1ccnc(Cn2c(-c3ccc(OCCC(C)(C)O)cc3Cl)nc3c(OC4(C)CC4)ncnc32)c1` [Example T382, 4-(3-chloro-4-(6-(1-methylcyclopropoxy)-9-((4-methylpyridin-2-yl)methyl)-9H-purin-8-yl)phenoxy)-2-methylbutan-2-ol], for which the IC50 was 0.1 µM in the experiment with DLD-1 BRCA2−/− cells (setting [1]) and over 10 µM in the experiment on DLD-1 cells (setting [2]).
Taken in the same sequence, the figures for `Cc1ccnc(Cn2c(-c3ccc(OCCCN(C)C)cc3Cl)nc3c(OC4(C)CC4)ncnc32)c1` [Example T385, 3-(3-chloro-4-(6-(1-methylcyclopropoxy)-9-((4-methylpyridin-2-yl)methyl)-9H-purin-8-yl)phenoxy)-N,N-dimethylpropan-1-amine] were 0.0794 µM and over 10 µM.
Taken in the same sequence, the figures for `Cc1ccnc(Cn2c(-c3cccc(OCCCN(C)C)c3Cl)nc3c(OC4(C)CC4)ncnc32)c1` [Example T386, 3-(2-chloro-3-(6-(1-methylcyclopropoxy)-9-((4-methylpyridin-2-yl)methyl)-9H-purin-8-yl)phenoxy)-N,N-dimethylpropan-1-amine] were 0.1 µM and over 10 µM.
On to `Cc1cnc(Cn2c(-c3ccc(OCCCN4CCCC4)cc3Cl)nc3c(OC4(C)CC4)ncnc32)s1` [Example T388, 2-((8-(2-chloro-4-(3-(pyrrolidin-1-yl)propoxy)phenyl)-6-(1-methylcyclopropoxy)-9H-purin-9-yl)methyl)-5-methylthiazole], for which the IC50 was 0.251 µM in the experiment with DLD-1 BRCA2−/− cells (setting [1]) and over 10 µM in the experiment with DLD-1 cells (setting [2]).
As for `Cc1cnc(Cn2c(-c3ccc(OCCCN4CC[C@@H](O)C4)cc3Cl)nc3c(OC4(C)CC4)ncnc32)s1` [Example T391, (R)-1-(3-(3-chloro-4-(6-(1-methylcyclopropoxy)-9-((5-methylthiazol-2-yl)methyl)-9H-purin-8-yl)phenoxy)propyl)pyrrolidin-3-ol], the IC50 with DLD-1 BRCA2−/− cells (setting [3]) was 0.501 µM; in the experiment with DLD-1 cells (setting [4]) it was over 10 µM.
Taken in the same sequence, the figures for `Cc1cnc(Cn2c(-c3cccc(OCCCN4CC[C@@H](O)C4)c3Cl)nc3c(OC4(C)CC4)ncnc32)s1` [Example T392, (R)-1-(3-(2-chloro-3-(6-(1-methylcyclopropoxy)-9-((5-methylthiazol-2-yl)methyl)-9H-purin-8-yl)phenoxy)propyl)pyrrolidin-3-ol] were 0.794 µM and 0.794 µM.
Take `Cc1cnc(Cn2c(-c3ccc(OCCN4CCNC[C@@H]4C)cc3Cl)nc3c(OC4(C)CC4)ncnc32)s1` [Example T393, (S)-2-((8-(2-chloro-4-(2-(2-methylpiperazin-1-yl)ethoxy)phenyl)-6-(1-methylcyclopropoxy)-9H-purin-9-yl)methyl)-5-methylthiazole]: the IC50 in the experiment on DLD-1 BRCA2−/− cells (setting [3]) was 0.794 µM; in the experiment with DLD-1 cells (setting [4]), over 10 µM.
Taken in the same sequence, the figures for `C[C@H](CCOc1ccc(-c2nc3c(OC4(C)CC4)ncnc3n2Cc2cccc(C#N)c2)c(Cl)c1)C(=O)O` [Example T401, (R)-4-(3-chloro-4-(9-(3-cyanobenzyl)-6-(1-methylcyclopropoxy)-9H-purin-8-yl)phenoxy)-2-methylbutanoic acid] were 0.398 µM and over 10 µM.
Taken in the same sequence, the figures for `C[C@H](CCOc1ccc(-c2nc3c(OC4(C)CC4)ncnc3n2Cc2ccccc2C#N)c(Cl)c1)C(=O)O` [Example T402, (R)-4-(3-chloro-4-(9-(2-cyanobenzyl)-6-(1-methylcyclopropoxy)-9H-purin-8-yl)phenoxy)-2-methylbutanoic acid] were 0.398 µM and over 10 µM.
Taken in the same sequence, the figures for `C[C@@H](CCOc1ccc(-c2nc3c(OC4(C)CC4)ncnc3n2Cc2ccccc2C#N)c(Cl)c1)C(=O)O` [Example T403, (S)-4-(3-chloro-4-(9-(2-cyanobenzyl)-6-(1-methylcyclopropoxy)-9H-purin-8-yl)phenoxy)-2-methylbutanoic acid] were 0.398 µM and over 10 µM.
On to `CC1(Oc2cccc3c2nc(-c2ccc(OCCC(=O)O)cc2Cl)n3Cc2cccc(Cl)c2)CCC1` [Example T406, 3-(3-chloro-4-(1-(3-chlorobenzyl)-4-(1-methylcyclobutoxy)-1H-benzo[d]imidazol-2-yl)phenoxy)propanoic acid], for which the IC50 in the experiment on DLD-1 BRCA2−/− cells (setting [3]) was 2 µM; in the experiment on DLD-1 cells (setting [4]), over 10 µM.
Taken in the same sequence, the figures for `CC1(Oc2ncnc3c2nc(-c2ccc(OCCC4(C(=O)O)CC4)cc2Cl)n3Cc2cccc(Cl)c2)CC1` [Example T407, 1-(2-(3-chloro-4-(9-(3-chlorobenzyl)-6-(1-methylcyclopropoxy)-9H-purin-8-yl)phenoxy)ethyl)cyclopropane-1-carboxylic acid] were 0.316 µM and over 10 µM.
Taken in the same sequence, the figures for `Cc1ccnc(Cn2c(-c3ccc(C(=O)N4CCC(F)CC4)cc3Cl)nc3c(OC4(C)CC4)ncnc32)c1` [Example T419, (3-chloro-4-(6-(1-methylcyclopropoxy)-9-((4-methylpyridin-2-yl)methyl)-9H-purin-8-yl)phenyl)(4-fluoropiperidin-1-yl)methanone] were 1 µM and over 10 µM.
As for `Cc1ccnc(Cn2c(-c3ccc(CC(=O)N4C[C@@H](O)[C@H](F)C4)cc3Cl)nc3c(OC4(C)CC4)ncnc32)c1` [Example T422, 2-(3-chloro-4-(6-(1-methylcyclopropoxy)-9-((4-methylpyridin-2-yl)methyl)-9H-purin-8-yl)phenyl)-1-((3R,4R)-3-fluoro-4-hydroxypyrrolidin-1-yl)ethan-1-one], the IC50 was 1 µM in the experiment on DLD-1 BRCA2−/− cells (setting [3]) and over 10 µM with DLD-1 cells (setting [4]).
Regarding `FC(F)(F)C1(Oc2ncnc3c2nc(-c2ccc(OCCN4CCNCC4)cc2Cl)n3Cc2ccccc2)COC1` [Example T424, 9-benzyl-8-(2-chloro-4-(2-(piperazin-1-yl)ethoxy)phenyl)-6-((3-(trifluoromethyl)oxetan-3-yl)oxy)-9H-purine], the IC50 with DLD-1 BRCA2−/− cells (setting [3]) is 2 µM; in the experiment with DLD-1 cells (setting [4]) it was 10 µM.
Taken in the same sequence, the figures for `CC1(Oc2ncnc3c2nc(-c2ccc(OCCCN4CC(O)C4)cc2Cl)n3Cc2cc(C(F)(F)F)ccn2)CC1` [Example T425, 1-(3-(3-chloro-4-(6-(1-methylcyclopropoxy)-9-((4-(trifluoromethyl)pyridin-2-yl)methyl)-9H-purin-8-yl)phenoxy)propyl)azetidin-3-ol] were 0.501 µM and over 10 µM.
